# Source: patent US10512700B2, “Radiohalide-labeled targeted diagnostics and therapeutics” (Memorial Sloan Kettering Cancer Center, priority 2014, dated 2019)
# Legend:
# Blood half-life = type: in vivo, mouse; conditions: healthy athymic nude mice, tail vein
# Method: The blood half-life was determined by measuring the activity in serial blood samplings. […] Measurements in counts per minute were calculated as the mean % ID/g. The blood half-life was calculated using Prism 6.0c (GraphPad Software, La Jolla, Calif.).
# The blood half-life was calculated by measuring the activity of blood samples collected at different time points p.i. […] The collected blood was weighed and counted in a WIZARD^2 automatic γ-counter (PerkinElmer, Boston, Mass.). The blood half-life was calculated using Prism 6.0c (GraphPad Software, La Jolla, Calif.) using a two-phase decay least squares fitting method and expressed as % ID/g.
# [1] = test system: U87 MG tumor bearing mice; test: Biodistribution; type: in vivo, mouse; conditions: i.v., 2 h post injection
# Method: Biodistribution experiments were conducted on female nude mice (8-10 weeks old and 20-25 g in weight, n=21) bearing U87 MG subcutaneous xenografts. The radiolabeled preparation (20-30 μCi of compound C-2d (^131I) in 200 μL of a solution 90% PBS 10% PEG300) was administrated via the lateral tail vein. To determine a suitable specific activity (to achieve a sufficiently high tumor to organ ratio), several specific activities were tested (5 mCi/μmol, 50 mCi/μmol, 250 mCi/μmol) in mice bearing U87 MG tumors. The compound was allowed to circulate for 2 h post injection at which time mice were sacrificed and organs were harvested (n=3). The radioactive content in tissue of interest (blood, tumor, muscle, bone, liver, spleen, kidney, heart, lung, pancreas, brain, skin, small intestine, large intestine, stomach, tail, thyroid and feces) was measured on a Wizard 2470 Automatic Gamma Counter, and the tissue-associated activity was calculated as the mean % ID/g using the following formula: [(activity in the target organ/grams of tissue)/injected dose]×100%.
# After determining the optimal specific activity (of the three tested), a suitable time window for imaging was determined by testing the compound distribution in nude mice bearing U87 MG tumors at different time points. The compound was allowed to circulate for various times (1, 2, and 6 h), after which the mice were sacrificed (n=3).
smiles,measurement,setting,value
O=C(c1ccc([131I])cc1)N1CCN(C(=O)c2cc(Cc3n[nH]c(=O)c4ccccc34)ccc2F)CC1 [C-2d (^131I)],alpha blood half-life,Blood half-life,14.3 min
same,"alpha blood half-life, share of phase",Blood half-life,96.25%
same,beta blood half-life,Blood half-life,94.6 min
same,"beta blood half-life, share of phase",Blood half-life,3.75%
same,weighted blood half-life,Blood half-life; 50 μCi,17.1 min
same,"% ID/g, Blood",[1]; 5 mCi/μmol,5.88 % ID/g
same,"% ID/g, Bone",[1]; 5 mCi/μmol,0.14 % ID/g
same,"% ID/g, Brain",[1]; 5 mCi/μmol,0.02 % ID/g
same,"% ID/g, Feces",[1]; 5 mCi/μmol,6.23 % ID/g
same,"% ID/g, Heart",[1]; 5 mCi/μmol,0.26 % ID/g
same,"% ID/g, Kidneys",[1]; 5 mCi/μmol,1.08 % ID/g
same,"% ID/g, Large intestine",[1]; 5 mCi/μmol,5.43 % ID/g
same,"% ID/g, Liver",[1]; 5 mCi/μmol,3.14 % ID/g
same,"% ID/g, Lung",[1]; 5 mCi/μmol,0.55 % ID/g
same,"% ID/g, Muscle",[1]; 5 mCi/μmol,0.27 % ID/g
same,"% ID/g, Pancreas",[1]; 5 mCi/μmol,0.67 % ID/g
same,"% ID/g, Skin",[1]; 5 mCi/μmol,0.26 % ID/g
same,"% ID/g, Small intestine",[1]; 5 mCi/μmol,14.16 % ID/g
same,"% ID/g, Spleen",[1]; 5 mCi/μmol,0.60 % ID/g
same,"% ID/g, Stomach",[1]; 5 mCi/μmol,5.86 % ID/g
same,"% ID/g, Tail",[1]; 5 mCi/μmol,2.31 % ID/g
same,"% ID/g, Thyroid",[1]; 5 mCi/μmol,0.37 % ID/g
same,"% ID/g, Tumor",[1]; 5 mCi/μmol,0.32 % ID/g
same,"% ID/g, Blood",[1]; 50 mCi/μmol,0.90 % ID/g
same,"% ID/g, Bone",[1]; 50 mCi/μmol,0.04 % ID/g
same,"% ID/g, Brain",[1]; 50 mCi/μmol,0.007 % ID/g
same,"% ID/g, Feces",[1]; 50 mCi/μmol,3.75 % ID/g
same,"% ID/g, Heart",[1]; 50 mCi/μmol,0.10 % ID/g
same,"% ID/g, Kidneys",[1]; 50 mCi/μmol,0.35 % ID/g
same,"% ID/g, Large intestine",[1]; 50 mCi/μmol,0.94 % ID/g
same,"% ID/g, Liver",[1]; 50 mCi/μmol,1.02 % ID/g
same,"% ID/g, Lung",[1]; 50 mCi/μmol,0.28 % ID/g
same,"% ID/g, Muscle",[1]; 50 mCi/μmol,0.04 % ID/g
same,"% ID/g, Pancreas",[1]; 50 mCi/μmol,0.42 % ID/g
same,"% ID/g, Skin",[1]; 50 mCi/μmol,0.092 % ID/g
same,"% ID/g, Small intestine",[1]; 50 mCi/μmol,7.17 % ID/g
same,"% ID/g, Spleen",[1]; 50 mCi/μmol,0.15 % ID/g
same,"% ID/g, Stomach",[1]; 50 mCi/μmol,1.90 % ID/g
same,"% ID/g, Tail",[1]; 50 mCi/μmol,0.45 % ID/g
same,"% ID/g, Thyroid",[1]; 50 mCi/μmol,0.14 % ID/g
same,"% ID/g, Tumor",[1]; 50 mCi/μmol,0.17 % ID/g
same,"% ID/g, Blood",[1]; 250 mCi/μmol,4.78 % ID/g
same,"% ID/g, Bone",[1]; 250 mCi/μmol,0.09 % ID/g
same,"% ID/g, Brain",[1]; 250 mCi/μmol,0.06 % ID/g
same,"% ID/g, Feces",[1]; 250 mCi/μmol,67.25 % ID/g
same,"% ID/g, Heart",[1]; 250 mCi/μmol,0.16 % ID/g
same,"% ID/g, Kidneys",[1]; 250 mCi/μmol,0.58 % ID/g
same,"% ID/g, Large intestine",[1]; 250 mCi/μmol,17.29 % ID/g
same,"% ID/g, Liver",[1]; 250 mCi/μmol,2.17 % ID/g
same,"% ID/g, Lung",[1]; 250 mCi/μmol,0.43 % ID/g
same,"% ID/g, Muscle",[1]; 250 mCi/μmol,0.074 % ID/g
same,"% ID/g, Pancreas",[1]; 250 mCi/μmol,0.27 % ID/g
same,"% ID/g, Skin",[1]; 250 mCi/μmol,0.14 % ID/g
same,"% ID/g, Small intestine",[1]; 250 mCi/μmol,7.55 % ID/g
same,"% ID/g, Spleen",[1]; 250 mCi/μmol,0.43 % ID/g
same,"% ID/g, Stomach",[1]; 250 mCi/μmol,1.25 % ID/g
